Test results published in patent US9307765B2, “Selective weed control using D-napropamide” (UPL Limited, priority 2013, dated 2016).

Key:
Format in all cases: in vivo
Ranunculus repens = test: Field trial on strawberries, pre-emergence, visual % control
Method: (§1) Field trials were conducted on various moncotyledonous weeds and dicotyledonous weeds and the effect of D-isomer of Napropamide was studied to understand the selective and effective control of dicotyledonous weeds over monocotyledonous weeds. The effect of D-isomer of Napropamide in comparison to racemic napropramide and untreated was studied, which is concluded hereinbelow:
(§2) Several small plot replicated trials were carried out to evaluate and/or compare the efficacy of D-Napropamide against a range of indicated annual broadleaved and grass weed species in the indicated crops. No problems were encountered during mixing or application of any of the product formulations or tank mixtures under test.
(§3) In each of the reported data, the homogeneity of variance was tested by Bartlett's test. Wherever this test indicated no homogeneity of variance, the transformed values were used for analysis of variance. Assessment data was then analyzed using a two-way analysis of variance (ANOVA) on untransformed and transformed data. The probability of no significant differences occurring between treatment means was calculated as the F probability value (p(F)). A mean comparison test was only performed and reported when the treatment of F that was calculated during analysis of variance was significant at the observed significance level specified for the mean comparison test. Where the data was transformed, treatment means in the reports were presented in their detransformed state, with the appropriate letter test and mean descriptions (LSD and standard deviation) derived from the transformed ANOVA.
Trial was carried out on strawberries to evaluate the efficacy and selectivity of D-Napropamide and equivalent rate of Devrinol (Napropramide) applied pre-emergence. […] The percentage control of D-isomer of Napropamide and Devrinol was assessed in comparison to the untreated after 224 days after application.

Digitaria sanguinalis = test: Plot trial, % control of Digitaria sanguinalis
Method: as §1, §2
as §3, with “ANOVA. […]” for “ANOVA.”

Matricaria sp. = test: Field trial in winter oilseed rape, pre-emergence, % control and ground cover
Method: as §1, §2, §3
Trials were conducted to evaluate the selectivity and efficacy of D-isomer of Napropamide when applied pre-emergence to oilseed rape crop. The % control of weed was assessed at regular intervals.

## CCN(CC)C(=O)[C@@H](C)Oc1cccc2ccccc12 [D-Napropamide, D-(−)-N,N-diethyl-2-(α-naphthoxy)propionamide]
Ranunculus repens; 3.0 L/Ha of 450 g/L formulation
  Percentage Control at 224 DAA: 66.7%
Ranunculus repens; 4.2 L/Ha of 450 g/L formulation
  Percentage Control at 224 DAA: 100%
Ranunculus repens; 8.5 L/Ha of 450 g/L formulation
  Percentage Control at 224 DAA: 100%
Ranunculus repens; Ranunculus repens
  Conclusion: efficacy in control vis-à-vis Napropamide at an equivalent dosage: surprising efficacy
Digitaria sanguinalis; 3 L/Ha of 450 g/L formulation, 16 DAA
  % Control: 7.50%
Digitaria sanguinalis; 3 L/Ha of 450 g/L formulation, 33 DAA
  % Control: 8.75%
Digitaria sanguinalis; 4.5 L/Ha of 450 g/L formulation, 16 DAA
  % Control: 10.00%
Digitaria sanguinalis; 4.5 L/Ha of 450 g/L formulation, 33 DAA
  % Control: 10.00%
Digitaria sanguinalis; 6 L/Ha of 450 g/L formulation, 16 DAA
  % Control: 10.00%
Digitaria sanguinalis; 6 L/Ha of 450 g/L formulation, 33 DAA
  % Control: 12.50%
Digitaria sanguinalis; 7.5 L/Ha of 450 g/L formulation, 16 DAA
  % Control: 10.00%
Digitaria sanguinalis; 7.5 L/Ha of 450 g/L formulation, 33 DAA
  % Control: 11.25%
Digitaria sanguinalis; 9 L/Ha of 450 g/L formulation, 16 DAA
  % Control: 10.00%
Digitaria sanguinalis; 9 L/Ha of 450 g/L formulation, 33 DAA
  % Control: 18.75%
Digitaria sanguinalis; Digitaria sanguinalis
  Conclusion: efficacy in comparison to Napropamide in the control of monocotyledonous weeds: only as efficacious or less
Matricaria sp.; 450 g/L @ 2.0 L/Ha
  Percentage ground cover %, value in brackets (untreated 0.0%): (99.3%)
Matricaria sp.; 450 g/L @ 2.0 L/Ha, oilseed rape
  Percentage Control at 49 DAA: 97.00%
Matricaria sp.; 450 g/L @ 2.0 L/Ha, untreated 4.50
  Percentage ground cover %: 0.30%
Matricaria sp.; Matricaria sp., dicot, oilseed rape
  Conclusion: efficacy in control vis-à-vis Napropamide at an equivalent dosage: superior efficacy
